{"source": "patent US4086350A", "about": "“Pharmaceutical compositions and method of producing anti-psychotic activity without extrapyramidal symptoms” (priority 1975, dated 1978)", "key": {"extrapyramidal symptoms": {"test_system": "extrapyramidal symptoms", "details": "compared with chlorpromazine; cited from earlier work"}, "[1]": {"test_system": "amphetamine-induced rotation vs. avoidance acquisition", "test": "R/A ratio: ED50 amphetamine-induced rotation / ED50 avoidance acquisition", "assay_type": "in vivo, rat", "details": "ratio of i.p. ED50 values in rats", "experimental": "(§1) To predict the potential ability of a drug to cause EPS, the ratio of its ED50 (i.p.) for antagonism of amphetamine-induced rotation to its ED50 (i.p.) for blockade of shock avoidance acquisition in the rat, a procedure for assessing antipsychotic activity, (R/A ratio) is calculated."}, "[2]": {"test_system": "shock avoidance acquisition in the rat", "test": "Antagonism of shock avoidance acquisition in the rat (antipsychotic activity)", "assay_type": "in vivo", "details": "ip, rats, i.p., piperidylidene derivatives (Table II), read-out: Antagonism of Avoidance Acquisition, Rats, ED50 (A)", "experimental": "as §1"}, "[3]": {"test_system": "striatal dopamine receptors", "test": "Antagonism of amphetamine-induced rotation in rats with unilateral substantia nigra lesions (Ungerstedt)", "assay_type": "in vivo, rat", "details": "i.p., piperidylidene derivatives (Table II)", "description": "There is evidence that antipsychotic drugs cause EPS by interfering with neurotransmission in a nigrostriatal dopaminergic pathway. It is thought that they block dopamine receptors in the neostriatum. Therefore, the ability of a drug to block striatal dopamine receptors is a measure of its EPS liability.\nTo assess the potency of drugs in blocking striatal dopamine receptors a procedure was used which was developed by Ungerstedt [Ungerstedt and Arbuthnott, Brain Res. 24 485 (1970); Ungerstedt, Acta physiol. scand., Suppl. 367, 49 (1971)] using rats with unilateral lesions of the substantia nigra induced by injection of 6-hydroxydopamine. This treatment causes degeneration of the nigrostriatal dopaminergic pathway accompanied by a marked decrease in the dopamine content of the neostriatum on the side of the lesion. Animals with this lesion develop postural and motor asymmetries which are altered by drugs which affect dopaminergic activity. Amphetamine, which releases dopmine and norepinephrine from catecholaminergic neurons, causes these rats to rotate unidirectionally toward the side of the lesion. Since there is a much larger amount of dopamine to be released by amphetamine from the intact nigrostriatal neurons on the non-lesioned side than from those remaining on the lesioned side, the rotational behavior is apparently due to the preponderance of activation of striatal dopamine receptors on the intact side. The ability of a drug to antagonize the rotational behavior is therefore a measure of its ability to block striatal dopamine receptors and is indicative of its potential to produce EPS.\nas §1"}, "[4]": {"details": "piperidylidene derivatives (Table II)"}}, "data": [{"smiles": "CN1CCN(C2=Nc3cc(Cl)ccc3Nc3ccccc32)CC1", "note": "[Clozapine, reference compound]", "values": [{"measurement": "propensity to cause EPS", "setting": "extrapyramidal symptoms", "result": "known to produce EPS to a lesser extent than chlorpromazine"}, {"measurement": "R/A ratio", "setting": "[1]; clinically established antipsychotics (Table I)", "result": 3.8}]}, {"smiles": "CSc1ccc2c(c1)N(CCC1CCCCN1C)c1ccccc1S2", "note": "(stereo not drawn) [Thioridazine]", "values": [{"measurement": "propensity to cause EPS", "setting": "extrapyramidal symptoms", "result": "known to produce EPS to a lesser extent than chlorpromazine"}]}, {"smiles": "CCCCN1CCC(=C2c3ccccc3Oc3ccc(C(F)(F)F)cc32)CC1", "note": "[XXXI, 4-(2-trifluoromethyl-9-xanthenylidene)-1-n-butylpiperidine]", "values": [{"measurement": "R/A ratio", "setting": "[1]; [4]", "result": 10}, {"measurement": "ED50", "setting": "[2]", "result": 0.1, "unit": "mg/kg"}, {"measurement": "Antagonism of Amphetamine-induced Rotation, Rats, ED50 (R)", "setting": "[3]", "result": 1, "unit": "mg/kg"}]}, {"smiles": "CCCCN1CCC(=C2c3ccccc3Oc3ccc(Br)cc32)CC1", "note": "[XXXII, 4-(2-bromo-9-xanthenylidene)-1-n-butylpiperidine]", "values": [{"measurement": "R/A ratio", "setting": "[1]; [4]", "result": 5.0}, {"measurement": "ED50", "setting": "[2]", "result": 0.6, "unit": "mg/kg"}, {"measurement": "Antagonism of Amphetamine-induced Rotation, Rats, ED50 (R)", "setting": "[3]", "result": 3.0, "unit": "mg/kg"}]}]}
